The experiment has as its target S1P1/EDG1 (Homo sapiens, UniProt P21453). The experiment is described as follows: S1P1 CRE-bla CHOK1 reporter assay, inhibition of Forskolin induced cAMP. The class given is cell-based. As to conditions: agonist activity range; S1P1 CRE-bla CHOK1 cells, 2 μM Forskolin; read-out: S1P1 ACTIVITY
In short, it runs like this: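 CRE-bla CHO K1 cells stably expressing human S1P1 were treated 4 hrs at 37° C with 10-point compound dilutions plus 2 μM Forskolin. Inhibition of cAMP-driven β-lactamase reporter was read with a FRET substrate loaded 2 hrs at room temperature.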

Each structure is given as a SMILES string. pEC50: −log10 of the molar value. Where a name gives a salt, the structure may show the parent alone.

Sequence of S1P1/EDG1 (P21453 whole entry): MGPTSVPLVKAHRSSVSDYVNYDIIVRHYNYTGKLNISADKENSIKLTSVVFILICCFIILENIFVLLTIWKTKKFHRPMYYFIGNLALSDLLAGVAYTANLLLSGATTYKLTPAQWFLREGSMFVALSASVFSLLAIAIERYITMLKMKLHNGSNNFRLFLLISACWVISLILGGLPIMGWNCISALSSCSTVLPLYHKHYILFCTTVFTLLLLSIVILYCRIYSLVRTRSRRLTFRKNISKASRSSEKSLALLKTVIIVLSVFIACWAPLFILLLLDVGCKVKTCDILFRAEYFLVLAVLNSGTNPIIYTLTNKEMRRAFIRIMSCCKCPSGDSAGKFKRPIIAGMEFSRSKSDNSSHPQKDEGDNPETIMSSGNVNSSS

Regarding `CC(C)Oc1ccc(-c2nc(-c3cccc4c3CC[C@@H]4NCCO)ns2)cc1C#N` [Compound 311, (S)-5-(3-(1-(2-hydroxyethyl)amino)-2,3-dihydro-1H-inden-4-yl)-1,2,4-thiadiazol-5-yl)-2-isopropoxybenzonitrile hydrochloride], the pEC50 is 8.30 to 9.30.
The value for `CC(C)Oc1ccc(-c2nc(-c3cccc4c3CC[C@@H]4N(CCO)CCO)ns2)cc1C#N` [Compound 312, (S)-5-(3-(1-(bis(2-hydroxyethyl)amino)-2,3-dihydro-1H-inden-4-yl)-1,2,4-thiadiazol-5-yl)-2-isopropoxybenzonitrile hydrochloride] was 8.30 to 9.30; that for `COC(=O)CS(=O)(=O)N[C@H]1CCc2c(-c3nsc(-c4ccc(OC(C)C)c(C#N)c4)n3)cccc21` [Compound 313, (S)-methyl 2-(N-(4-(5-(3-cyano-4-isopropoxyphenyl)-1,2,4-thiadiazol-3-yl)-2,3-dihydro-1H-inden-1-yl)sulfamoyl)acetate] was 9.30 to 10.30; that for `CC(C)Oc1ccc(-c2nc(-c3cccc4c3CC[C@@H]4NS(=O)(=O)CCO)ns2)cc1C#N` [Compound 314, (S)—N-(4-(5-(3-cyano-4-isopropoxyphenyl)-1,2,4-thiadiazol-3-yl)-2,3-dihydro-1H-inden-1-yl)-2-hydroxyethanesulfonamide] was 8.30 to 9.30.

Values taken from patent US9481659B2, “Selective heterocyclic sphingosine 1 phosphate receptor modulators” (Celgene International II SÀRL, priority 2011, dated 2016).
